The text below walks through data of article PMC4357465, “Tool Compounds Robustly Increase Turnover of an Artificial Substrate by Glucocerebrosidase in Human Brain Lysates” (PLoS ONE, 2015).

Holding throughout (format): biochemical
Test [1] has as its target T1, recombinant GBA2 (Homo sapiens, UniProt Q9HCG7).
T1 construct: purchased Abcam ab163631
T1 sequence (Q9HCG7 1-927): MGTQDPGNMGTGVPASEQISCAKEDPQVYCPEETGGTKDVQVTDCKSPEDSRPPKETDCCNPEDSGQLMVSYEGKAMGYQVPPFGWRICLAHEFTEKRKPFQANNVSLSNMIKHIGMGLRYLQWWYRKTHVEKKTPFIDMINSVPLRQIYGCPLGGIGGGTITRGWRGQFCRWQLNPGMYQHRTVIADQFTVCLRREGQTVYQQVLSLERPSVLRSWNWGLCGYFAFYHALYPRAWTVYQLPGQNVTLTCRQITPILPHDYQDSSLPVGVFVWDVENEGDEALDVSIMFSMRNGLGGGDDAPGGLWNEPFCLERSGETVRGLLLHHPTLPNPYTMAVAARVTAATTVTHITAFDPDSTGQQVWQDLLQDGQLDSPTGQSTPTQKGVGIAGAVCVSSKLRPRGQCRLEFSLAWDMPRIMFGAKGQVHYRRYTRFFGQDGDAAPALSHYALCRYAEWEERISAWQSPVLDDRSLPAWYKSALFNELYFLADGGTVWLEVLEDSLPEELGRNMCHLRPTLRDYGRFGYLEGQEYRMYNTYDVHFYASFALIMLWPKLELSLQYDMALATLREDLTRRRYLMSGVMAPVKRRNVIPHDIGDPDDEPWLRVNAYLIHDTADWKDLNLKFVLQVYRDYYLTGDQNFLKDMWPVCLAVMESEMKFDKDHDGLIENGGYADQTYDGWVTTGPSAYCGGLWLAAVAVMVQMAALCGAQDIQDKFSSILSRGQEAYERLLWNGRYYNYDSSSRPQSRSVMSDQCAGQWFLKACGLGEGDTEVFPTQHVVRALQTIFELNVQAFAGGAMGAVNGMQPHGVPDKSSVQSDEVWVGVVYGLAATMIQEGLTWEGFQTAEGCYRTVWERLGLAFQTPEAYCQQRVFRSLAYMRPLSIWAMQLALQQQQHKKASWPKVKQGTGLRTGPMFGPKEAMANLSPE
Kind of test: cell-free 4MUG assay with recombinant GBA2. To be noted: dose response, within the concentrations tested. On the procedure:
The assay buffer consisted of 44 mM Citric Acid, 111 mM Na2HPO4, pH 5.5, 0.1% Triton X-100. […] A 10-fold intermediate solution of compound serial dilution was prepared in an assay buffer; half log dilutions were used. In a black 384-well plate (ThermoFisher, 267461) we added 5 μl of enzyme solution and 1 μl of compounds when appropriate, and incubated for 30 minutes at room temperature. 2 mM solution of 4MUG was prepared in an assay buffer. To start the reaction, 4.5 μl/well of this solution was added to the enzyme plate and was incubated for 30 minutes at 37°C. To stop the reaction, a 1M glycine solution, adjusted to pH = 10 using 1M NaOH was used. The fluorescent signal was detected using the Envision Multilabel Plate Reader (Perkin Elmer) at excitation = 355nm and emission = 450nm.

Test [2] has as its target T2, GBA1 in mouse brain lysates (Mus musculus, UniProt P17439).
T2 construct: Mouse brain was obtained from 4–7 month old C57BL/6J mice; from tissue; host or cells: brain of C57BL/6J mice
T2 sequence (P17439 20-515): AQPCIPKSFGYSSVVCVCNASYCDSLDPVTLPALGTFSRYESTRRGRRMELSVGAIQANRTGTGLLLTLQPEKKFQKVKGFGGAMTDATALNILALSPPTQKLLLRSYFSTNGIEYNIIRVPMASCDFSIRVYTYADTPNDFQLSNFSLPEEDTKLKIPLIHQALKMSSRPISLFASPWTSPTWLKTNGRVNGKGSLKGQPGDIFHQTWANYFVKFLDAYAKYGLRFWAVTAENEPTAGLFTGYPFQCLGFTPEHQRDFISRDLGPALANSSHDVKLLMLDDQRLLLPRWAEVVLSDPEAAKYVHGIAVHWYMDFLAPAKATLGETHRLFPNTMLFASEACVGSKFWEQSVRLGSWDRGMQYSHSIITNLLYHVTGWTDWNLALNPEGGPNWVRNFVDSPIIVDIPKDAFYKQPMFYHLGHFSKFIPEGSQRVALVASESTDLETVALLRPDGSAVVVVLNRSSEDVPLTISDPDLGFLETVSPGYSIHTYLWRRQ
Kind of test: GBA1 tissue assay, 4MUG turnover in mouse brain lysates. To be noted: mouse brain lysate 10 μg, with sodium taurocholate. On the procedure: (§1) Human cortex was acquired from brain banks (Tissue Solutions: http://www.tissue-solutions.com; Proteogenex: http://www.proteogenex.com). Human cortex samples were obtained from deceased aged Caucasian subjects without any diagnosis of neurodegenerative disorders. Mouse brain was obtained from 4–7 month old C57BL/6J mice. All mouse experiments were performed in accordance with the specifications of both the National Institutes of Health Guide for the Care and Use of Laboratory Animals, studies were approved by Pfizer’s Internal Animal Care and Use Committee (IACUC). […] Samples were then centrifuged at 20,000g for 15 minutes at 4°C. Supernatant was collected, and used for activity assays and Western blots. Protein concentration was determined using the Pierce BCA protein assay kit. Tissue lysates and pellets were stored at -80°C until use. For enzymatic activity assays, lysates were subjected only to one free-thaw cycle. Independent replicates were obtained using brain lysates from either different human subjects or different mice. […] Brain tissue lysates were diluted to 0.4 μg/ μl of protein in the same homogenization buffer, as described above. 25 μl of diluted lysate was added to the plate (Costar, 7200567). Lysates were then incubated on ice in the presence or absence of a compound for 30 minutes. 100 μl of assay buffer was then added to the plate. The same assay buffer was used as in the cell free/recombinant experiments and processed as described above.

Test [3] concerns GBA1 in mouse brain lysates. The test is described as above. To be noted: mouse brain lysate 10 μg, without sodium taurocholate. The protocol:
as §1

“Also recorded” adds a separate entry of the source.

Take `O[C@H]1[C@H](O)[C@@H](O)[C@@H]2O[C@@H]2[C@@H]1O` [CBE]: the “effect on activity of recombinant GBA2” value in test [1] is reported as “did not inhibit; also recorded: does not alter activity”. The “% inhibition: + NaTc” value in test [2] (1mM) is 82% ± 1%. Further, the “% inhibition: - NaTc” value in test [3] (1mM) is given as 32% ± 4%.
As for `OC[C@H]1CNC[C@@H](O)[C@@H]1O` [Isofagomine, isofagomine], the results for the “effect on activity of recombinant GBA2” value in test [1] and in test [1] (listed as isofagomine) were “almost no effect” and “Minimal effect”, respectively. Also, the inhibition (usually the drop in the measured response relative to a control, in per cent) at 1 µM in test [2] (1 μM, read-out: % inhibition: + NaTc) worked out at 82%. Further, the “% inhibition: - NaTc” value in test [3] (1 μM) is given as 21% ± 3%.
